# Measurements: US6583150B1, “Pharmaceutical composition based on polyaromatic compounds” (Laboratorie L. Lafon, priority 1999, dated 2003)
# Experiments:
# [1] = Determination of the maximum tolerated dose (MTD); assay type: in vivo; conditions: mouse, in vivo, ip; single intraperitoneal administration, survival over 14 days, B6D2F1/Jico mice
# Protocol: The evaluation of the maximum tolerated dose was carried out on 4- to 6-week-old B6D2F1/Jico mice. […] The value of the MTD (expressed in mg/kg) is determined from observing the survival rate of the animals over a period of 14 days after a single administration of the product under consideration. The change in the weight of the animals is also monitored over this period.
# U-87MG = test: MTT cytotoxicity test, U-87MG; assay type: cell-based; conditions: Homo sapiens, U-87MG glioblastoma, 72 hours, read-out: concentrations flanking the IC50
# Protocol: (§1) The influence of the compounds of formulae I and II on neoplastic cells was evaluated using the MTT calorimetric test. The principle of the MTT test is based on the mitochondrial reduction by metabolically active live cells of the yellow-colored product MTT (3-(4,5-dimethylthiazol-2-yl)-2,5-diphenyltetrazolium bromide) to a blue-colored product, formazan. The amount of formazan thus obtained is directly proportional to the amount of live cells present in the culture well(s). This amount of formazan is measured by spectrophotometry.
# (§2) The cell lines are maintained in monolayer culture at 37° C. in stoppered culture dishes containing 25 MM HEPES MEM (Minimum Essential Medium) base medium. This medium, which is suitable for growing a range of varied diploid or primary mammalian cells, is then supplemented: […]
# (§3) with a an amount of 5% FCS (Fetal Calf Serum) decomplemented at 56° C. for 1 hour, with 0.6 mg/mL of L-glutamine, with 200 IU/mL of penicillin, with […] of streptomycin, with 0.1 mg/mL of gentamicin.
# The 12 human cancer cell lines used were obtained from the American Type Culture Collection (ATCC, Rockville, Md., USA). These 12 cell lines are:
# U-373MG (code ATCC: HTB-17) and U-87MG (code ATCC: HTB-14) which are two glioblastomas, Experimentally: 100 μl of a cell suspension containing 200 000 to 50 000 (depending on the cell type used) cells/mL of culture medium are inoculated in flat-bottomed 96-well multi-well plates and are incubated at 37° C. under an atmosphere comprising 5% CO2 and 70% humidity. […] The intensity of the resulting blue coloration, and thus of the conversion of the yellow MTT product into blue formazan by the cells that are still alive at the end of the experiment is quantified by spectrophotometry using a DYNATECH IMMUNOASSAY SYSTEM machine at wavelengths of 570 nm and 630 nm corresponding, respectively, to the maximum absorption wavelengths of formazan and to the background noise. […]
# T-47D = test: MTT cytotoxicity test, T-47D; assay type: cell-based; conditions: Homo sapiens, T47D, T-47D breast cancer, 72 hours, read-out: concentrations flanking the IC50
# Protocol: as §1, §2, §3
# The 12 human cancer cell lines used were obtained from the American Type Culture Collection (ATCC, Rockville, Md., USA). These 12 cell lines are: […]
compound,measurement,setting,value
"O=C1c2ncccc2-c2nc3ccccc3c3ccnc1c23 [CRL 8299, Benzo[b]pyrido[4,3,2-de][1,7]phenanthroline-8-one]",MTD at 14 days,[1],80 mg/kg
same,IC50,U-87MG,< 0.1 nM
same,IC50,T-47D,10 nM
